For one data set, the system named is Cladosporium. In words: Antimicrobial activity against Cladosporium at 100 ug/8 mm disk. Format: functional, organism-based.
For the next data set, the system named is Staphylococcus aureus. As to the kind of experiment: Antimicrobial activity against Staphylococcus aureus at 100 ug/8 mm disk. Format: functional, organism-based.
The next data set has as its system Poecilia reticulata. In words: Ichthyotoxicity against Poecilia reticulata up to 10 ppm. Format: organism-based. The settings on record: in vivo.
The test system of a further data set is Bacillus subtilis. As to the kind of experiment: Antimicrobial activity against Bacillus subtilis at 100 ug/8 mm disk. Format: functional, organism-based.
The next data set relates to Aspergillus sp. In words: Antimicrobial activity against Aspergillus sp. at 100 ug/8 mm disk. Format: functional, organism-based.
The next data set relates to Escherichia coli. In words: Antimicrobial activity against Escherichia coli at 100 ug/8 mm disk. Format: functional, organism-based.
Data set [1] is described as follows: Inhibition of cell division in sea urchin fertilized egg at 1 ug/ml. The following applies: echinoidea, fertilized sea urchin eggs.

The source made the active and inactive calls. The rule behind the calls is not given here.

For orientation: inhibition means the percentage by which the read-out fell short of the control.

For the molecule `C=C1CCC2=C(C)Cc3occ(C)c3C[C@@H]12` [ECHINOFURAN], the outcome with Cladosporium, in the data set with Staphylococcus aureus, in the data set on Bacillus subtilis, with Aspergillus sp. and in the data set on Escherichia coli was inactive. For the same molecule, the Activity entry in the data set with Poecilia reticulata was “Non-toxic”. This molecule registered an inhibition at 1 ug/ml in data set [1] of 90%.
